# Where two headings read alike, the source gives them in different places.
# Tests used:
# [1] = system: human colon carcinoma cells HCT-116/VM46; assay: XTT in vitro cytotoxicity assay, HCT-116/VM46 multi-drug resistant human colon carcinoma cells; assay type: cell-based
# Protocol: (§1) The HCT-116/VM46 cells are cells that have been previously selected for teniposide resistance and express the multi-drug resistance phenotype, including resistance to paclitaxel. Cytotoxicity was assessed in HCT-116 human colon carcinoma cells by XTT (2,3-bis(2-methoxy-4-nitro-5-sulfphenyl)-5-[(phenylamino)carbonyl]2H-tetrazolium hydroxide) assay as reported in D. A. Scudiero, et al., "Evaluation of soluble tetrazolium/formazan assay for cell growth and drug sensitivity in culture using human and other tumor cell lines," Cancer Res. 48:4827-4833, 1988. Cells were plated at 4000 cells/well in 96 well microtiter plates and 24 hours later drugs were added and serial diluted. The cells were incubated at 37° C. for 72 hours at which time the tetrazolium dye, XTT, was added. A dehydrogenase enzyme in live cells reduces the XTT to a form that absorbs light at 450 nm which can be quantitated spectrophotometrically. The greater the absorbance, the greater the number of live cells. The results are expressed as an IC50, which is the drug concentration required to inhibit cell proliferation (i.e., absorbance at 450 nm) to 50% of that of untreated control cells.
# [2] = system: human colon carcinoma cells HCT-116; assay: XTT in vitro cytotoxicity assay, HCT-116 human colon carcinoma cells; assay type: cell-based
# Protocol: as §1
# [3] = HCT-116/VM46, XTT, 72 hours at 37° C., teniposide-selected cells, multi-drug resistance phenotype incl. resistance to paclitaxel, read-out: IC50 HCT116/VM46
# [4] = HCT-116, XTT, 72 hours at 37° C., inhibition of cell proliferation to 50% of untreated control, read-out: IC50 HCT116
# [5] = HCT-116/VM46, 72 h, read-out: IC50 HCT116/VM46 (nM)
# [6] = HCT-116, 72 h, read-out: IC50 HCT116 (nM)
Compound,"IC50 [1, 3] [nM]","IC50 [2, 4] [nM]","IC50 [1, 5] [nM]","IC50 [2, 6] [nM]"
"CC(=O)O[C@H]1C(=O)[C@]2(C)[C@@H]3O[C@@H]3[C@H]3OC[C@@]3(OC(C)=O)[C@H]2[C@H](OC(=O)c2ccccc2)[C@]2(O)C[C@H](OC(=O)[C@H](O)[C@@H](NC(=O)OC(C)(C)C)c3ccco3)C(C)=C1C2(C)C [Ib, 3'-N-Debenzoyl-N-t-butoxycarbonyl-3'-desphenyl-3'-(2-furyl)-6,7-α-epoxypaclitaxel]",2.8 to 13.9,1.3 to 3,–,–
"CC(=O)O[C@H]1C(=O)[C@]2(C)[C@@H]3O[C@@H]3[C@H]3OC[C@@]3(OC(C)=O)[C@H]2[C@H](OC(=O)c2ccccc2)[C@]2(O)C[C@H](OC(=O)[C@H](O)[C@@H](NC(=O)c3ccccc3)c3ccco3)C(C)=C1C2(C)C [Ic, 3'-Desphenyl-3'-(2-furyl)-6,7-α-epoxypaclitaxel]",–,–,12.3,0.6
"CC(=O)O[C@H]1C(=O)[C@]2(C)[C@@H]3O[C@@H]3[C@H]3OC[C@@]3(OC(C)=O)[C@H]2[C@H](OC(=O)c2ccccc2)[C@]2(O)C[C@H](OC(=O)[C@H](O)[C@H](C=C(C)C)NC(=O)OC(C)(C)C)C(C)=C1C2(C)C [Id, 3'-N-Debenzoyl-N-t-butoxycarbonyl-3'-desphenyl-3'-isobutenyl-6,7-α-epoxypaclitaxel]",–,–,3.3,1.3
CC(=O)O[C@H]1C(=O)[C@@]2(C)[C@H]([C@H](OC(=O)c3ccccc3)[C@]3(O)C[C@H](OC(=O)[C@H](O)[C@@H](NC(=O)c4ccccc4)c4ccccc4)C(C)=C1C3(C)C)[C@]1(OC(C)=O)CO[C@@H]1C[C@@H]2O [paclitaxel],244 to 403,1.3 to 3.5,–,–
"CC(=O)O[C@H]1C(=O)[C@]2(C)[C@@H]3O[C@@H]3[C@H]3OC[C@@]3(OC(C)=O)[C@H]2[C@H](OC(=O)c2ccccc2)[C@]2(O)C[C@H](OC(=O)[C@H](O)[C@@H](NC(=O)c3ccccc3)c3ccccc3)C(C)=C1C2(C)C [Ia, 6,7-α-Epoxypaclitaxel]",–,–,30.5,1.2
